pIC50: −log10 of the molar value. Activity calls are given as the source filed them. No cut-off for these calls is given here.

The target in one test is Matrix metalloproteinase-9 (Homo sapiens, UniProt P14780). The test is described as follows: Inhibition of MMP9.
Sequence of Matrix metalloproteinase-9 (P14780 whole entry): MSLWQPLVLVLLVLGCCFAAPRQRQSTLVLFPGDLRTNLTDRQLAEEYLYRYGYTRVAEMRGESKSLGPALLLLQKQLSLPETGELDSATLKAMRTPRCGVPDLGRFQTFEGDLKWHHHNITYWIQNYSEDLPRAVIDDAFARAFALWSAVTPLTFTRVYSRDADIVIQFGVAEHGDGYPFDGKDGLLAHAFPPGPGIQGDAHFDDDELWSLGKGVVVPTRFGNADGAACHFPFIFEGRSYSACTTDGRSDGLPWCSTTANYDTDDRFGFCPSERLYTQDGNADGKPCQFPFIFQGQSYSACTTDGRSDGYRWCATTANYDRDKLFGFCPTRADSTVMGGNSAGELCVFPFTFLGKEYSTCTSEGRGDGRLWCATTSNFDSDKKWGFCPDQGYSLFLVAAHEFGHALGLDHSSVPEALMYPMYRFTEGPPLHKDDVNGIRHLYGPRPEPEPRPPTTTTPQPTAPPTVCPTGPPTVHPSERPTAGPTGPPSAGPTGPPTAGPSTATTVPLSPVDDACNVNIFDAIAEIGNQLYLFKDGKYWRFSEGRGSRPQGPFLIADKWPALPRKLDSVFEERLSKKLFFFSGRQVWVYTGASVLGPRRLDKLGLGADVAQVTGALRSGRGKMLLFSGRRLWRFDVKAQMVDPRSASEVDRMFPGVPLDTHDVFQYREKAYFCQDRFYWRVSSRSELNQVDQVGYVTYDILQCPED
As to `CC1(C)OC[C@H](C(CS(=O)(=O)c2ccc(Oc3ccc(OC(F)(F)F)cc3)cc2)N(O)C=O)O1` (some centres not stated), the pIC50 is 9.30.
Still for that read-out and setting: under `C[C@@H]1OC(C)(C)O[C@H]1C(CS(=O)(=O)c1ccc(Oc2ccc(OC(F)(F)F)cc2)cc1)N(O)C=O` (some centres not stated) stands 8.96; under `O=CN(O)C(CS(=O)(=O)c1ccc(Oc2ccc(OC(F)(F)F)cc2)cc1)C(CO)CO` (configuration not stated), 9.31; under `CC1(C)C[C@@H](C(CS(=O)(=O)c2ccc(Oc3ccc(OC(F)(F)F)cc3)cc2)N(O)C=O)N(S(C)(=O)=O)C1` (some centres not stated), 8.70.
On the same count and under the same terms, with `CC1(C)NC(=O)N(CC(CS(=O)(=O)c2ccc(Oc3ccc(Cl)cc3)cc2)N(O)C=O)C1=O` (configuration not stated) the figure was 7.43; with `CCC1(CC)OC[C@H](C(CS(=O)(=O)c2ccc(Oc3ccc(OC(F)(F)F)cc3)cc2)N(O)C=O)O1` (some centres not stated), 8.96; with `CC1(C)NC(=O)N(CC(CS(=O)(=O)c2ccc(-c3ccc(OC(F)(F)F)cc3)cc2)N(O)C=O)C1=O` (configuration not stated), 9.47.

Another test relates to SVR. The test is described as follows: Antiproliferative activity against mouse SVR cells at 20 ug/ml after 48 hrs by Coulter counting method. The test is classed as functional, cell-based.
For `COc1cc(/C=C/C(=O)CC(=O)/C=C/c2ccc(O)c(OC)c2)ccc1O`, the outcome was Active.
The same measure, in the same setting: with `Cc1cc(C)n(-c2nc(-c3ccccc3)cc(-c3ccccc3)n2)n1` the entry was “Active”; with `Brc1ccc(/C=N/Nc2nc(-c3ccccc3)cc(-c3ccccc3)n2)cc1`, “Active”; with `Cc1cccc(-c2nnc(-c3cccc(NC(=O)c4ccco4)c3)o2)c1`, “Active”.
Consider `CN(C)c1ccc(/C=C/C(=O)c2ccco2)cc1`, for which the outcome was Active.

(Values after ChEMBL document CHEMBL2040824, “The impact of ionization States of matrix metalloproteinase inhibitors on docking-based inhibitor design” (ACS Med Chem Lett, 2011).)
